Data as given in PubChem BioAssay (NCI).
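Grown in 96-well plates, cells were treated for 48 hours with each compound at five concentrations. Insufficient inhibition: endpoint recorded as highest concentration tested. GI50: concentration for 50% inhibition of growth. TGI: total growth inhibition.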

What was measured:
Assay in all cases: NCI-60 cell line screen, 48 h
UACC-257 melanoma = tested on: UACC-257 melanoma
MCF7 breast = tested on: MCF7 breast
HCT-116 colon = tested on: HCT-116 colon
T-47D breast = tested on: T-47D breast
SK-MEL-5 melanoma = tested on: SK-MEL-5 melanoma
HS 578T breast = tested on: HS 578T breast
NCI/ADR-RES ovarian = tested on: NCI/ADR-RES ovarian
DU-145 prostate = tested on: DU-145 prostate
NCI-H23 lung = tested on: NCI-H23 lung
786-0 renal = tested on: 786-0 renal
IGROV1 ovarian = tested on: IGROV1 ovarian
NCI-H226 lung = tested on: NCI-H226 lung
M14 melanoma = tested on: M14 melanoma
RPMI-8226 leukemia = tested on: RPMI-8226 leukemia
SF-295 CNS = tested on: SF-295 CNS
K-562 leukemia = tested on: K-562 leukemia
ACHN renal = tested on: ACHN renal
A549 NSCLC = tested on: A549 NSCLC
KM12 colon = tested on: KM12 colon
SNB-19 CNS = tested on: SNB-19 CNS
UACC-62 melanoma = tested on: UACC-62 melanoma
SN12C renal = tested on: SN12C renal
LOX IMVI melanoma = tested on: LOX IMVI melanoma
OVCAR-3 ovarian = tested on: OVCAR-3 ovarian
SK-MEL-28 melanoma = tested on: SK-MEL-28 melanoma
SK-OV-3 ovarian = tested on: SK-OV-3 ovarian
HOP-62 NSCLC = tested on: HOP-62 NSCLC
SF-268 CNS = tested on: SF-268 CNS
SW-620 colon = tested on: SW-620 colon
HL-60(TB) leukemia = tested on: HL-60(TB) leukemia
NCI-H460 lung = tested on: NCI-H460 lung
SR leukemia = tested on: SR leukemia
RXF 393 renal = tested on: RXF 393 renal
HOP-92 NSCLC = tested on: HOP-92 NSCLC
MDA-MB-435 = tested on: MDA-MB-435
PC-3 prostate = tested on: PC-3 prostate
HCC-2998 colon = tested on: HCC-2998 colon
BT-549 breast = tested on: BT-549 breast
OVCAR-8 ovarian = tested on: OVCAR-8 ovarian
HCT-15 colon = tested on: HCT-15 colon
U251 CNS = tested on: U251 CNS
MOLT-4 leukemia = tested on: MOLT-4 leukemia
CCRF-CEM leukemia = tested on: CCRF-CEM leukemia
NCI-H522 lung = tested on: NCI-H522 lung
OVCAR-4 ovarian = tested on: OVCAR-4 ovarian
HT29 colon = tested on: HT29 colon
SF-539 CNS = tested on: SF-539 CNS
COLO 205 colon = tested on: COLO 205 colon
TK-10 renal = tested on: TK-10 renal
A498 renal = tested on: A498 renal
MDA-MB-468 breast = tested on: MDA-MB-468 breast
MALME-3M melanoma = tested on: MALME-3M melanoma
OVCAR-5 ovarian = tested on: OVCAR-5 ovarian
EKVX NSCLC = tested on: EKVX NSCLC
CAKI-1 renal = tested on: CAKI-1 renal

Structure (SMILES): COc1c(B(O)O)cc(F)cc1-c1nc2c(F)cc3[nH]ncc3c2c2c1CCCC2
- GI50 (UACC-257 melanoma): 14.6 µM
- TGI (UACC-257 melanoma): 62.8 µM
- GI50 (MCF7 breast): 3.83 µM
- TGI (MCF7 breast): 23.1 µM
- GI50 (HCT-116 colon): 2.1 µM
- TGI (HCT-116 colon): 36.7 µM
- GI50 (T-47D breast): 12.5 µM
- TGI (T-47D breast): 61.9 µM
- GI50 (SK-MEL-5 melanoma): 14.4 µM
- TGI (SK-MEL-5 melanoma): 33.2 µM
- GI50 (HS 578T breast): 0.293 µM
- TGI (HS 578T breast): 63.9 µM
- GI50 (NCI/ADR-RES ovarian): 8.18 µM
- TGI (NCI/ADR-RES ovarian): > 100 µM
- GI50 (DU-145 prostate): 6.53 µM
- TGI (DU-145 prostate): 56.4 µM
- GI50 (NCI-H23 lung): 7.03 µM
- TGI (NCI-H23 lung): 31.3 µM
- GI50 (786-0 renal): 2.02 µM
- TGI (786-0 renal): 18.7 µM
- GI50 (IGROV1 ovarian): 7.75 µM
- TGI (IGROV1 ovarian): 45.9 µM
- GI50 (NCI-H226 lung): 3.3 µM
- TGI (NCI-H226 lung): 72.8 µM
- GI50 (M14 melanoma): 16.4 µM
- TGI (M14 melanoma): 35.4 µM
- GI50 (RPMI-8226 leukemia): 2.14 µM
- TGI (RPMI-8226 leukemia): 19.6 µM
- GI50 (SF-295 CNS): 10.7 µM
- TGI (SF-295 CNS): 40.1 µM
- GI50 (K-562 leukemia): 19.1 µM
- TGI (K-562 leukemia): > 100 µM
- GI50 (ACHN renal): 1.38 µM
- TGI (ACHN renal): 42.4 µM
- GI50 (A549 NSCLC): 3.53 µM
- TGI (A549 NSCLC): 86.5 µM
- GI50 (KM12 colon): 4.47 µM
- TGI (KM12 colon): 31.6 µM
- GI50 (SNB-19 CNS): 3.46 µM
- TGI (SNB-19 CNS): 66.4 µM
- GI50 (UACC-62 melanoma): 4.09 µM
- TGI (UACC-62 melanoma): 17.1 µM
- GI50 (SN12C renal): 2.9 µM
- TGI (SN12C renal): 62.2 µM
- GI50 (LOX IMVI melanoma): 2.43 µM
- TGI (LOX IMVI melanoma): 16.5 µM
- GI50 (OVCAR-3 ovarian): 15.5 µM
- TGI (OVCAR-3 ovarian): 72.6 µM
- GI50 (SK-MEL-28 melanoma): 13.1 µM
- TGI (SK-MEL-28 melanoma): 38.4 µM
- GI50 (SK-OV-3 ovarian): 4.1 µM
- TGI (SK-OV-3 ovarian): 77.2 µM
- GI50 (HOP-62 NSCLC): 2.95 µM
- TGI (HOP-62 NSCLC): 54 µM
- GI50 (SF-268 CNS): 3.05 µM
- TGI (SF-268 CNS): 81.1 µM
- GI50 (SW-620 colon): 4.15 µM
- TGI (SW-620 colon): > 100 µM
- GI50 (HL-60(TB) leukemia): 2.42 µM
- TGI (HL-60(TB) leukemia): 10.9 µM
- GI50 (NCI-H460 lung): 4.1 µM
- TGI (NCI-H460 lung): 28.9 µM
- GI50 (SR leukemia): 1.4 µM
- TGI (SR leukemia): 11.4 µM
- GI50 (RXF 393 renal): 0.0887 µM
- TGI (RXF 393 renal): 1.9 µM
- GI50 (HOP-92 NSCLC): 0.0199 µM
- TGI (HOP-92 NSCLC): 86.5 µM
- GI50 (MDA-MB-435): 13.8 µM
- TGI (MDA-MB-435): 34.2 µM
- GI50 (PC-3 prostate): 4.9 µM
- TGI (PC-3 prostate): > 100 µM
- GI50 (HCC-2998 colon): 11.8 µM
- TGI (HCC-2998 colon): 40.1 µM
- GI50 (BT-549 breast): 0.0845 µM
- TGI (BT-549 breast): 6.85 µM
- GI50 (OVCAR-8 ovarian): 4.82 µM
- TGI (OVCAR-8 ovarian): > 100 µM
- GI50 (HCT-15 colon): 4.45 µM
- TGI (HCT-15 colon): 44.5 µM
- GI50 (U251 CNS): 5.34 µM
- TGI (U251 CNS): > 100 µM
- GI50 (MOLT-4 leukemia): 2.75 µM
- TGI (MOLT-4 leukemia): 30.9 µM
- GI50 (CCRF-CEM leukemia): 3.07 µM
- TGI (CCRF-CEM leukemia): 80.3 µM
- GI50 (NCI-H522 lung): 3.66 µM
- TGI (NCI-H522 lung): 43.6 µM
- GI50 (OVCAR-4 ovarian): 14.9 µM
- TGI (OVCAR-4 ovarian): 59.4 µM
- GI50 (HT29 colon): 14.6 µM
- TGI (HT29 colon): > 100 µM
- GI50 (SF-539 CNS): 0.596 µM
- TGI (SF-539 CNS): 12.7 µM
- GI50 (COLO 205 colon): 4.85 µM
- TGI (COLO 205 colon): 19.3 µM
- GI50 (TK-10 renal): 0.275 µM
- TGI (TK-10 renal): > 100 µM
- GI50 (A498 renal): 12.8 µM
- TGI (A498 renal): 46.5 µM
- GI50 (MDA-MB-468 breast): 11.7 µM
- TGI (MDA-MB-468 breast): 39.9 µM
- GI50 (MALME-3M melanoma): 14.8 µM
- TGI (MALME-3M melanoma): 34.2 µM
- GI50 (OVCAR-5 ovarian): 5.77 µM
- TGI (OVCAR-5 ovarian): 66 µM
- GI50 (EKVX NSCLC): 5.04 µM
- TGI (EKVX NSCLC): 63.4 µM
- GI50 (CAKI-1 renal): 0.158 µM
- TGI (CAKI-1 renal): 1.58 µM
